Results on six compounds are retold here after ChEMBL document CHEMBL5154767, “Discovery of dual-target ligands binding to beta2-adrenoceptor and cysteinyl-leukotriene receptor for the potential treatment of asthma from natural products derived DNA-encoded library” (Eur J Med Chem, 2022).

Calls of active or inactive are those of the source. The rule behind the calls is not given here.

Assay [1] has as its target T1, Beta-2 adrenergic receptor (Homo sapiens, UniProt P07550). As to the kind of experiment: Binding affinity to immobilized Halo tag-fused beta2 adrenoceptor (unknown origin) expressed in Escherichia coli BL21 (DE3) by receptor chromatography.
Target sequence in this assay (P07550 whole entry, looked up, the tested form may be a part): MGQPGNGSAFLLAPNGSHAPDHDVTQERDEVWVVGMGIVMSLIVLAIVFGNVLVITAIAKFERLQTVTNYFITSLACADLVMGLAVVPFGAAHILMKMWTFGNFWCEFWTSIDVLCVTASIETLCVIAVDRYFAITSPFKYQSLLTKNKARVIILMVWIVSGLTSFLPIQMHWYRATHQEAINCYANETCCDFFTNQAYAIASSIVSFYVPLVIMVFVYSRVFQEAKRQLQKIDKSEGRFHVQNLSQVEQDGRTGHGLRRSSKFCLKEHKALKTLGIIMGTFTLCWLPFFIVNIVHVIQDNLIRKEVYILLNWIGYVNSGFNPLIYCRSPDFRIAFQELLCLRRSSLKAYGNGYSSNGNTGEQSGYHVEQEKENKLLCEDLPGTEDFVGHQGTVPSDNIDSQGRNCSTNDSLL
Assay [2] concerns the target T1, Beta-2 adrenergic receptor. As to the kind of experiment: Binding affinity to immobilized Halo tag-fused beta2 adrenoceptor (unknown origin) expressed in Escherichia coli BL21 (DE3) assessed as retention time by chromatography.
Target sequence in this assay (P07550 whole entry, looked up, the tested form may be a part): as above
Assay [3] addresses T1, Beta-2 adrenergic receptor. Kind of assay: Binding affinity to immobilized Halo tag-fused beta2 adrenoceptor (unknown origin) expressed in Escherichia coli BL21 (DE3) assessed as association rate constant by receptor chromatography.
Target sequence in this assay (P07550 whole entry, looked up, the tested form may be a part): as above
In assay [4] the target is T1, Beta-2 adrenergic receptor. As to the kind of experiment: Binding affinity to immobilized Halo tag-fused beta2 adrenoceptor (unknown origin) expressed in Escherichia coli BL21 (DE3) assessed as dissociation rate constant by receptor chromatography.
Target sequence in this assay (P07550 whole entry, the tested form may be a part): as the sequence (P07550 whole entry, looked up, the tested form may be a part) above
Assay [5] has as its target T2, Uracil nucleotide/cysteinyl leukotriene receptor (Homo sapiens, UniProt Q13304).
Description: Binding affinity to immobilized Halo tag-fused CysLT receptor (unknown origin) expressed in Escherichia coli BL21 (DE3) assessed as association rate constant by receptor chromatography
Assay [6] concerns the target T2, Uracil nucleotide/cysteinyl leukotriene receptor. As to the kind of experiment: Binding affinity to immobilized Halo tag-fused CysLT receptor (unknown origin) expressed in Escherichia coli BL21 (DE3) assessed as dissociation rate constant by receptor chromatography.
Assay [7] shares this target. The source holds these as a separate data set.
Description: Binding affinity to immobilized Halo tag-fused CysLT receptor (unknown origin) expressed in Escherichia coli BL21 (DE3) assessed as retention time by chromatography
For assay [8], the system named is Mus musculus. As to the kind of experiment: Anti-asthmatic activity against ovalbumin-induced asthmatic mouse model assessed as decrease in IgE level in serum at 2.6 mg/kg, po administered once daily for 7 days by ELISA. The class given is functional, organism-based. The conditions noted are these: time 7.0 day. In general terms: In an ELISA, binding on a coated surface is turned into a signal by an enzyme label.

Assay [9] deals with Mus musculus. As to the kind of experiment: Increase in beta2 adrenoceptor expression in bronchus in ovalbumin-induced asthmatic mouse model at 2.6 mg/kg, po administered once daily for 7 days by Western blot analysis. The class given is functional, organism-based. The conditions noted are these: time 7.0 day. On the technique in general: Immunoblotting shows a protein as a band on a membrane.

Assay [10] relates to Mus musculus. Kind of assay: Anti-asthmatic activity against ovalbumin-induced asthmatic mouse model assessed as decrease in IL-4 level in BALF at 2.6 mg/kg, po administered once daily for 7 days by ELISA. Type of assay: functional, organism-based. The conditions noted are these: time 7.0 day.
For assay [11], the system named is Mus musculus. Kind of assay: Anti-asthmatic activity against ovalbumin-induced asthmatic mouse model assessed as decrease in IL-5 level in BALF at 2.6 mg/kg, po administered once daily for 7 days by ELISA. Type of assay: functional, organism-based. The conditions noted are these: time 7.0 day.
Assay [12] concerns Mus musculus. Kind of assay: Anti-asthmatic activity against ovalbumin-induced asthmatic mouse model assessed as infiltration of inflammatory cells in the perivascular and peribronchiolar region of lungs at 2.6 mg/kg, po administered once daily for 7 days by H and E staining based light microscopic analysis. Type of assay: functional, organism-based. The conditions noted are these: time 7.0 day.

Assay [13] deals with Mus musculus. Kind of assay: Anti-asthmatic activity against ovalbumin-induced asthmatic mouse model assessed as infiltration of inflammatory cells in the perivascular and peribronchiolar region of lungs at 20 mg/kg, po administered once daily for 7 days by H and E staining based light microscopic analysis. The class given is functional, organism-based. The conditions noted are these: time 7.0 day.

Assay [14] relates to Mus musculus. As to the kind of experiment: Anti-asthmatic activity against ovalbumin-induced asthmatic mouse model assessed as decrease in IL-13 level in BALF administered orally once daily for 7 days by ELISA. The class given is functional, organism-based. The conditions noted are these: dose 10-20 mg/kg, route po, time 7.0 day, DDE = dose-dependent effect.
Assay [15] deals with Mus musculus. Kind of assay: Anti-asthmatic activity against ovalbumin-induced asthmatic mouse model assessed as decrease in IL-4 level in BALF administered orally once daily for 7 days by ELISA. Type of assay: functional, organism-based. The conditions noted are these: dose 10-20 mg/kg, route po, time 7.0 day, DDE = dose-dependent effect.
Assay [16] has as its system Mus musculus. Kind of assay: Decrease in CysLT receptor expression in bronchus in ovalbumin-induced asthmatic mouse model administered orally once daily for 7 days by Western blot analysis. The class given is functional. The conditions noted are these: dose 10-20 mg/kg, route po, time 7.0 day, DDE = dose-dependent effect.
Assay [17] has as its system Mus musculus. As to the kind of experiment: Anti-asthmatic activity against ovalbumin-induced asthmatic mouse model assessed as infiltration of inflammatory cells in the perivascular and peribronchiolar region of lungs at 10 to 20 mg/kg, po administered once daily for 7 days by H and E staining based light microscopic analysis. The class given is functional, organism-based. The conditions noted are these: dose 10-20 mg/kg, time 7.0 day.

The subject of assay [18] is Mus musculus. Kind of assay: Increase in beta2 adrenoceptor expression in bronchus in ovalbumin-induced asthmatic mouse model administered orally once daily for 7 days by Western blot analysis. The class given is functional. The conditions noted are these: dose 10-20 mg/kg, route po, time 7.0 day, DDE = dose-dependent effect.
The test system of assay [19] is Mus musculus. As to the kind of experiment: Anti-asthmatic activity against ovalbumin-induced asthmatic mouse model assessed as decrease in IgE level in serum administered orally once daily for 7 days by ELISA. The conditions noted are these: dose 10-20 mg/kg, route po, time 7.0 day, DDE = dose-dependent effect. The class given is functional, organism-based.

T2 sequence (Q13304 whole entry, the tested form may be a part): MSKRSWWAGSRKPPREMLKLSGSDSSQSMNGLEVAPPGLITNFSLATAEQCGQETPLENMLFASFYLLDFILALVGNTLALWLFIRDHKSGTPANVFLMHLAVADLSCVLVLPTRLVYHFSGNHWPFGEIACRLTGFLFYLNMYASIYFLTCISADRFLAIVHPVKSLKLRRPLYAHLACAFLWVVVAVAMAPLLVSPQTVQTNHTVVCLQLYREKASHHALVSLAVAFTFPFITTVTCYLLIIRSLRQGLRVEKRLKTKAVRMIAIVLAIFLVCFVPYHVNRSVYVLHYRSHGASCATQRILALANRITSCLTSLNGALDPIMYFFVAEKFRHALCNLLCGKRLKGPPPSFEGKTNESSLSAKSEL

For `CNC(C)Cc1ccccc1OC` (stereo unspecified) [METHOXYPHENAMINE], the K in assay [1] is 0.5 10^4/M. In addition, the Retention time in assay [2] turned out to be 3.6 min. Besides, the Ka in assay [3] was 1.93 10^5/M/s. In addition, the Kd in assay [4] was found to be 0.98 s⁻¹.
Regarding `CC(C)(O)c1ccccc1CC[C@@H](SCC1(CC(=O)[O-])CC1)c1cccc(/C=C/c2ccc3ccc(Cl)cc3n2)c1.[Na+]` [MONTELUKAST SODIUM], in assay [5], the Ka is 5.18 10^5/M/s. In addition, the Kd in [6] was 12.6 s⁻¹. Also, the Retention time in assay [7] was determined as 8.7 min.
On to `CN(C)C(=O)Oc1cc(OC(=O)N(C)C)cc(C(O)CNC(C)(C)C)c1` (stereo unspecified), for which the result with Mus musculus [8], with Mus musculus [9], with Mus musculus [10], in the assay on Mus musculus [11] and with Mus musculus [12] was Active. The Retention time in assay [2] was found to be 4.1 min.
Regarding `CC1(C)[C@@H](O)CC[C@]2(C)[C@H]3C(=O)C=C4[C@@H]5C[C@@](C)(C(=O)O)CC[C@]5(C)CC[C@@]4(C)[C@]3(C)CC[C@@H]12`, the outcome with Mus musculus [13] was Active.
In the case of `CC1(C)[C@@H](O)CC[C@]2(C)[C@H]3C(=O)C=C4[C@@H]5C[C@@](C)(C(=O)NCCc6ccc(O)cc6)CC[C@]5(C)CC[C@@]4(C)[C@]3(C)CC[C@@H]12`, the Activity result in the assay on Mus musculus [14], with Mus musculus [15], in the assay with Mus musculus [18] and in the assay with Mus musculus [19] was “Dde” each time. In addition, the Ka in assay [5] is 4.85 10^5/M/s; in assay [3], 4.94 10^5/M/s. Also, the Kd in assay [6] stood at 17.2 s⁻¹; in assay [4] it was 7.52 s⁻¹. Also, the K in [1] was 6.57 10^4/M. Also, the inhibition entry with Mus musculus [16] was “Dde”. Also, in the assay on Mus musculus [17], the result was Active.
With `CC(c1cc2ccccc2s1)N(O)C(N)=O` (stereo unspecified), in assay [7], the Retention time was determined as 3.5 min.
